In US11066393B2, “Indolin-2-one derivatives” (Hoffmann-La Roche Inc., priority 2015, dated 2021):

Each compound was assayed against T1, mouse ENT-1 transporter (Mus musculus, UniProt Q9JIM1) (assay: Adenosine transport activity (ENT1, [3H]-adenosine uptake)). Settings: stable cells expressing mouse ENT-1; [2,8-3H]-adenosine 6 nM, 20 min.
T1 construct: expressed in transfected cells
T1 sequence (Q9JIM1 1-460): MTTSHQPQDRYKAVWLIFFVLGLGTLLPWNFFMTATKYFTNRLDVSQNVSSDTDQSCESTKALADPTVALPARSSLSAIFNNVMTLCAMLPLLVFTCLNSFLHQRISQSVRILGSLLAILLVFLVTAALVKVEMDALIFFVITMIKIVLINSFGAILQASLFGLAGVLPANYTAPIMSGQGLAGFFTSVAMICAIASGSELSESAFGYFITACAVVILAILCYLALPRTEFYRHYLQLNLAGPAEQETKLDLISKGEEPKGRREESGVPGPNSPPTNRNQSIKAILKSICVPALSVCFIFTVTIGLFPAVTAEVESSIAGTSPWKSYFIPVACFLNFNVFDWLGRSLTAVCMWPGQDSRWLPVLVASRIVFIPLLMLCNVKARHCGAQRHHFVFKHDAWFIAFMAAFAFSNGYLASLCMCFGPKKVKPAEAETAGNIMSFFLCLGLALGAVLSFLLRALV
Assay type: cell-based
Protocol: To measure adenosine transport activity of ENT-1 mammalian cells, stable cells expressing the mouse ENT-1 transporter were plated on day 1 in 96-well culture plates at the density of 60,000 cells/well, in complete DMEM/F12 medium supplemented with glutamax, 10% FBS and 10 μg/ml puromycin. On day 2, the medium was aspirated and the cells were washed twice with uptake buffer (10 mM Hepes-Tris, pH 7.4 containing 150 mM NaCl, 1 mM CaCl2, 2.5 mM KCl, 2.5 mM MgSO4, 10 mM D-glucose) (UB). For inhibition experiments, cells were then incubated at RT with various concentrations of compounds with 1% DMSO final. Non-specific uptake was defined in the presence of 10 μM S-(4-Nitrobenzyl)-6-thioinosine (NBTI, Sigma Cat #N2255).
A solution containing [2,8-^3H]-adenosine 6 nM (40 Ci/mmol, American Radiolabeled chemicals Inc, Cat #ART 0287A) was then immediately added to the wells. The plates were then incubated for 20 min with gentle shaking and the reaction was stopped by aspiration of the mixture and washing (three times) with ice-cold UB. The cells were lysed by the addition of scintillation liquid, shaken 3 hours and the radioactivity in the cells was estimated using a microplates scintillation counter (TopCount NXT, Packard).

| SMILES | IC50 [nM] |
| --- | --- |
| Cc1ncc(-c2ccc3c(c2)N(c2ccc4c(n2)C(=O)NC4(C)C)C(=O)C3(C)C)cn1 [Example 38, 2-(3,3-Dimethyl-6-(2-methylpyrimidin-5-yl)-2-oxoindolin-1-yl)-5,5-dimethyl-5H-pyrrolo[3,4-b]pyridin-7(6H)-one] | 239 |
| Cc1ncc(-c2ccc3c(c2)N(c2cncc(C(=O)NC4CC4)n2)C(=O)C3(C)C)cn1 [Example 39, N-Cyclopropyl-6-(3,3-dimethyl-6-(2-methylpyrimidin-5-yl)-2-oxoindolin-1-yl)pyrazine-2-carboxamide] | 76.4 |
| Cc1ncc(-c2ccc3c(c2)N(c2cncc(C(=O)NC4CC(F)(F)C4)n2)C(=O)C3(C)C)cn1 [Example 40, N-(3,3-Difluorocyclobutyl)-6-(3,3-dimethyl-6-(2-methylpyrimidin-5-yl)-2-oxoindolin-1-yl)pyrazine-2-carboxamide] | 323 |
| Cc1ncc(-c2ccc3c(c2)N(c2cncc(C(=O)NC4CCC4)n2)C(=O)C3(C)C)cn1 [Example 42, N-Cyclobutyl-6-(3,3-dimethyl-6-(2-methylpyrimidin-5-yl)-2-oxoindolin-1-yl)pyrazine-2-carboxamide] | 129 |
| Cc1ncc(-c2ccc3c(c2)N(c2cncc(C(=O)NC4COC4)n2)C(=O)C3(C)C)cn1 [Example 43, 6-(3,3-Dimethyl-6-(2-methylpyrimidin-5-yl)-2-oxoindolin-1-yl)-N-(oxetan-3-yl)pyrazine-2-carboxamide] | 319 |
| Cc1ncc(-c2ccc3c(c2)N(c2cncc(C(=O)NC(C)(C)C)n2)C(=O)C3(C)C)cn1 [Example 44, N-(tert-Butyl)-6-(3,3-dimethyl-6-(2-methylpyrimidin-5-yl)-2-oxoindolin-1-yl)pyrazine-2-carboxamide] | 243 |
| CNC(=O)c1nc(N2C(=O)C(C)(C)c3ccc(-c4cnc(C)nc4)cc32)cn1C [Example 45, 4-(3,3-Dimethyl-6-(2-methylpyrimidin-5-yl)-2-oxoindolin-1-yl)-N,1-dimethyl-1H-imidazole-2-carboxamide] | 21 |
| Cc1ncc(-c2ccc3c(c2)N(c2cn(C)c(C(=O)N(C)C)n2)C(=O)C3(C)C)cn1 [Example 46, 4-(3,3-Dimethyl-6-(2-methylpyrimidin-5-yl)-2-oxoindolin-1-yl)-N,N,1-trimethyl-1H-imidazole-2-carboxamide] | 46.9 |
